The source made the active and inactive calls.
Experiments:
[1] = target: Bcl-2-like protein 10 (Homo sapiens, UniProt Q9HD36); assay: Biochemical TR3 FP assay of Bcl-B inhibitor potency, EC50 (AID 1243); assay type: functional
[2] = target: Wee1-like protein kinase (Homo sapiens, UniProt P30291); assay: Dose Response Cell-based Assay for Inhibitors of Wee1 Degradation. [Related pubchem assays: 1410, 1321 ]; assay type: functional
[3] = target: G2/mitotic-specific cyclin-B1 (Homo sapiens, UniProt P14635); assay: Counterscreen assay for inhibitors of Wee1 degradation: dose response cell-based assay to identify inhibitors of cyclin B degradation. [Related pubchem assays: 1410, 1321 ]; assay type: functional
[4] = HIV-1 Env-mediated cell fusion inhibitors, dose response, CCR5-tropic Env (AID 2279); assay type: functional
[5] = target: Heat shock protein HSP 90-alpha (Homo sapiens, UniProt P07900); assay: Luminescence-based dose response biochemical high throughput screening assay for inhibitors of the Heat Shock Protein 90 (HSP90). [Related pubchem assays: 1831 (Summary AID.), 1846 (Confirmation screen.), 1789 (Primary screen.)]
[6] = target: Luciferin 4-monooxygenase (Photinus pyralis, UniProt P08659); assay: Counter Screen for Luciferase-based Assay Positives. [Related pubchem assays: 620, 618, 411 ]
[7] = target: T1, Protein RecA (Mycobacterium tuberculosis, UniProt P9WHJ3); assay: Fluorescence Cell-Free Homogeneous Dose Retest to Identify Inhibitors of RecA-Intein Splicing Activity. [Related pubchem assays (depositor defined):AID2097, AID2223, AID489010, AID492950]; assay type: functional
T1 sequence (P9WHJ3 whole entry): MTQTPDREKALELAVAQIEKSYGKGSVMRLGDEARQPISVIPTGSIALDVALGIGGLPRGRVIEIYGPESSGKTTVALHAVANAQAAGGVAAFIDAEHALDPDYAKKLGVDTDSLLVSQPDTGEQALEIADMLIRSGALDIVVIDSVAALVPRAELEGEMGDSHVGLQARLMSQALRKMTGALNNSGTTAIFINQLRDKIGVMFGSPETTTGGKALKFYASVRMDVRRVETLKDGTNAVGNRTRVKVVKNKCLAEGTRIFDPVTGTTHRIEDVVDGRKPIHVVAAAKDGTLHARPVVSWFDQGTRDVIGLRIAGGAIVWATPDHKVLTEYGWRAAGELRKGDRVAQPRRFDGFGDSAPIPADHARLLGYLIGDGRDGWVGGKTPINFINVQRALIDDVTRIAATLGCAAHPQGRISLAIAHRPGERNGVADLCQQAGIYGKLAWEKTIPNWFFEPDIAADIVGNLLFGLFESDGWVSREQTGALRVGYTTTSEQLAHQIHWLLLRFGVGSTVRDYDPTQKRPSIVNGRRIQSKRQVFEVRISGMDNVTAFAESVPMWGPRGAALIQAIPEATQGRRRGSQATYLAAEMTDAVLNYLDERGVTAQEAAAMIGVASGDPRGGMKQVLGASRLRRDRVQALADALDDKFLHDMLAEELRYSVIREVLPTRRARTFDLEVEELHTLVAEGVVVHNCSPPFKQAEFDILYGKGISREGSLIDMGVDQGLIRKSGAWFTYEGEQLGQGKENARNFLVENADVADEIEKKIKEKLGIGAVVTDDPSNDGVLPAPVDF

[8] = target: T2, Replicative DNA helicase DnaB (Mycobacterium tuberculosis, UniProt P9WMR3); assay: DnaB intein splicing inhibitors, dose response, biochemical, cell-free fluorescence (AID 449749); assay type: functional
T2 sequence (P9WMR3 whole entry): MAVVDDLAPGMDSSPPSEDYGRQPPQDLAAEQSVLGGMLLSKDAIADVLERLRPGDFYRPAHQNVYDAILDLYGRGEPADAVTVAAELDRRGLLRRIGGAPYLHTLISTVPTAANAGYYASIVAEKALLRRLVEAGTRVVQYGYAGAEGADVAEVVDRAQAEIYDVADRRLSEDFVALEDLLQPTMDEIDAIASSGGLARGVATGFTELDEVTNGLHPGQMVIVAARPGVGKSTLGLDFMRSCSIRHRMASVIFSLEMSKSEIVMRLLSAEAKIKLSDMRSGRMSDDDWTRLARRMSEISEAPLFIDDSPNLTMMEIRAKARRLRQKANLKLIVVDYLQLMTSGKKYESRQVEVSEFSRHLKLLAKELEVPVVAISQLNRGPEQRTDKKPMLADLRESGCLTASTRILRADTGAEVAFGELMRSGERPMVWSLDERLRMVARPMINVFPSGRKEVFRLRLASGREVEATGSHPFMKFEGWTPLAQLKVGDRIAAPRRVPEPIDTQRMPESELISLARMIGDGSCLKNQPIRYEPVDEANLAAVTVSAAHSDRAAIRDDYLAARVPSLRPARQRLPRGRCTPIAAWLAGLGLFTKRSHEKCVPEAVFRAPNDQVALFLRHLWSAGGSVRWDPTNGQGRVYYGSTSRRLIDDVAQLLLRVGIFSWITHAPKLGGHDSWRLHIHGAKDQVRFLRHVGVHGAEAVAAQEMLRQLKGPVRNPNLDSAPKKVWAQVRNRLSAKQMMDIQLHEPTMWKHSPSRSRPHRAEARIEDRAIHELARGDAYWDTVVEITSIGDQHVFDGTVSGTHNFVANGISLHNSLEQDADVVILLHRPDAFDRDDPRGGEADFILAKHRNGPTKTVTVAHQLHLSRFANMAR

[9] = Luminescence Cell-Based Dose Retest to Confirm Inhibitors of Cancer Stem Cells. [Related pubchem assays (depositor defined):AID2717, AID2721]; assay type: functional; conditions: Homo sapiens
[10] = inhibitors of PGC1a acetylation in cells, dose response, cell-based, cherry-picked samples (AID 720514); assay type: functional;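 note: potency may reflect raised or lowered acetylation signal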
[11] = system: HT-1080; assay: cytotoxicity in HT1080 fibrosarcoma cells, cell-based, fluorescence readout (AID 620); assay type: functional; conditions: Homo sapiens
[12] = target: Mothers against decapentaplegic homolog 3 (Homo sapiens, UniProt P84022); assay: Smad3 binding inhibitors, lysate ELISA, dose response, cell lysate, secondary confirmation, chemiluminescent ELISA, HEK293 lysate (AID 1058); assay type: functional
[13] = target: Cytochrome P450 2D6 (Homo sapiens, UniProt P10635); assay: qHTS Assay for Inhibitors and Substrates of Cytochrome P450 2D6. [Related pubchem assays: 410 ]; assay type: ADME; conditions: read-out: Potency
[14] = target: T3, Alkaline phosphatase, tissue-nonspecific isozyme (Homo sapiens, UniProt P05186)
T3 sequence (P05186 whole entry): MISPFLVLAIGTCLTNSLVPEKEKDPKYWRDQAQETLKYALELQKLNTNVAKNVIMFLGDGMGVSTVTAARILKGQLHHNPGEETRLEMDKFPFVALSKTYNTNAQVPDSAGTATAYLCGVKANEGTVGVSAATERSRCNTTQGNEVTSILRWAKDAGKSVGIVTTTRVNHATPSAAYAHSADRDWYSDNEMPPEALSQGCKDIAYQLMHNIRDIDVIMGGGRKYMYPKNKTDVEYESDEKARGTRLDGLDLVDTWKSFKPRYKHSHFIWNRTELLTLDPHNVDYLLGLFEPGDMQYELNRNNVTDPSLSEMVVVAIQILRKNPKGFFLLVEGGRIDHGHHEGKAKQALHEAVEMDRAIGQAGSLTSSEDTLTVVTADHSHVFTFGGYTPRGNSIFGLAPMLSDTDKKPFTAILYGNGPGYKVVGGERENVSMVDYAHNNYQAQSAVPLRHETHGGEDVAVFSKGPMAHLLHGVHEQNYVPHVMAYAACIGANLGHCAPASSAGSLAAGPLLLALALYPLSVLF

[15] = target: Estrogen receptor beta (Homo sapiens, UniProt Q92731);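 note: recombinant ER-beta bound to coactivator SRC1 peptide in presence of estradiol agonist; inhibitors block coactivator peptide binding and lower the FRET signal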
[16] = target: T4, Heat shock 70 kDa protein 1A (Homo sapiens, UniProt P0DMV8); assay: Hsp70 inhibitors, probe displacement, primary screen, biochemical, fluorescence polarization (AID 583)
[17] = target: T4, Heat shock 70 kDa protein 1A; assay: Hsp70 inhibitors, biochemical, TR-FRET (AID 786)
[18] = target: T5, Estrogen receptor (Homo sapiens, UniProt P03372);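 note: potency for inhibiting coactivator peptide recruitment to the receptor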
T5 sequence (P03372 whole entry): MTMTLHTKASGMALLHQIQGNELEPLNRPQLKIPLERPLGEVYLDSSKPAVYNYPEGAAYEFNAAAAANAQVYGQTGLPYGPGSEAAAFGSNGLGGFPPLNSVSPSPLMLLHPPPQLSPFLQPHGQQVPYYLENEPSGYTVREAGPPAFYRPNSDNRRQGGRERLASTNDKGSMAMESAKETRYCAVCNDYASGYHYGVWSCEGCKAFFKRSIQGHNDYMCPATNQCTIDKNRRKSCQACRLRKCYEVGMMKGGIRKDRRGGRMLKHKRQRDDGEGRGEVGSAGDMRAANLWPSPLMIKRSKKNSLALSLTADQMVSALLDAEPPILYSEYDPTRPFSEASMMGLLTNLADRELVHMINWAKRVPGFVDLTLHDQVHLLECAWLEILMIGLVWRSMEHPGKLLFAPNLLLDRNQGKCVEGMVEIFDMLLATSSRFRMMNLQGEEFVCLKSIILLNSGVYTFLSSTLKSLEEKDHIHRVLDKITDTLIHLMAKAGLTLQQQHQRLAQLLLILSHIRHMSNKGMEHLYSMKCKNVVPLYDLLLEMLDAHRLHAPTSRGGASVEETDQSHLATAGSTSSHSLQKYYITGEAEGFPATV

[19] = Counterscreen for IDE inhibitors: Luminescence-based cell-based high throughput dose response assay to identify compounds that are cytotoxic to HEK cells. [Related pubchem assays: 434962 (Primary screen (IDE inhibitors in singlicate)), 449730 (Counterscreen (Cytotoxicity in triplicate)), 435028 (Confirmation (IDE inhibitors in triplicate)) …; assay type: functional; conditions: HEK293
[20] = target: T6, Insulin-degrading enzyme (Homo sapiens, UniProt P14735); assay: Dose Response: Fluorescence polarization-based cell-based high throughput dose response assay for inhibitors of insulin-degrading enzyme (IDE). [Related pubchem assays: 434962 (Primary screen (IDE inhibitors in singlicate)), 449730 (Counterscreen (Cytotoxicity in triplicate)), 435028 (Confirmation (IDE inhibitors in triplicate)), 434984 (Summary …; assay type: functional
T6 sequence (P14735 whole entry): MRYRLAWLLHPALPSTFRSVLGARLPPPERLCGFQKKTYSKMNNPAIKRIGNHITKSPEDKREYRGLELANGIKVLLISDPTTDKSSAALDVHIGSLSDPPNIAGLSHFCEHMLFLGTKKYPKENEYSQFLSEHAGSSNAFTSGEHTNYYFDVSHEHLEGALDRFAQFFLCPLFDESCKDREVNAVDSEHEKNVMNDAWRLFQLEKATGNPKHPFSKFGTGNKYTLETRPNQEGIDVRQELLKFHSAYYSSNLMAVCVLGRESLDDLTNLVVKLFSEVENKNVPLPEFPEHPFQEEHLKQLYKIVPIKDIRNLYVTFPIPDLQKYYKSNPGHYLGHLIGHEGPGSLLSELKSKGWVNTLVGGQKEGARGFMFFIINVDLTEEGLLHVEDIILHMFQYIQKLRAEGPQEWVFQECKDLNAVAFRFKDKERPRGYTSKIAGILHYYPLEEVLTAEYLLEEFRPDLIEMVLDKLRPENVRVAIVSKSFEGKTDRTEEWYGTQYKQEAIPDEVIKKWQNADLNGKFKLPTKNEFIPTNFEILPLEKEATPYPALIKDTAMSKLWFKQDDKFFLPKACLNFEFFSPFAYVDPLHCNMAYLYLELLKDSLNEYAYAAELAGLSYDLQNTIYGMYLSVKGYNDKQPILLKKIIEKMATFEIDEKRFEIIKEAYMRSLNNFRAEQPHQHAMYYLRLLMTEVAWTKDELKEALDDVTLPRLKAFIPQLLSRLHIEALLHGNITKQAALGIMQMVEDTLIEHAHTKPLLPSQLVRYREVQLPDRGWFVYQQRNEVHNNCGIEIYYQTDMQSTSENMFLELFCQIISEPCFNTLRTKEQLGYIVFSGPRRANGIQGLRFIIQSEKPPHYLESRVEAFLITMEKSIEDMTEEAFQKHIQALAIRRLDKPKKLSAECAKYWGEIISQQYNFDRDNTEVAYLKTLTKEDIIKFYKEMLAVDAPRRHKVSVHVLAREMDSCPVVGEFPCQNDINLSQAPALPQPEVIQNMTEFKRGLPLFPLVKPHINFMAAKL

T4 sequence (P0DMV8 whole entry): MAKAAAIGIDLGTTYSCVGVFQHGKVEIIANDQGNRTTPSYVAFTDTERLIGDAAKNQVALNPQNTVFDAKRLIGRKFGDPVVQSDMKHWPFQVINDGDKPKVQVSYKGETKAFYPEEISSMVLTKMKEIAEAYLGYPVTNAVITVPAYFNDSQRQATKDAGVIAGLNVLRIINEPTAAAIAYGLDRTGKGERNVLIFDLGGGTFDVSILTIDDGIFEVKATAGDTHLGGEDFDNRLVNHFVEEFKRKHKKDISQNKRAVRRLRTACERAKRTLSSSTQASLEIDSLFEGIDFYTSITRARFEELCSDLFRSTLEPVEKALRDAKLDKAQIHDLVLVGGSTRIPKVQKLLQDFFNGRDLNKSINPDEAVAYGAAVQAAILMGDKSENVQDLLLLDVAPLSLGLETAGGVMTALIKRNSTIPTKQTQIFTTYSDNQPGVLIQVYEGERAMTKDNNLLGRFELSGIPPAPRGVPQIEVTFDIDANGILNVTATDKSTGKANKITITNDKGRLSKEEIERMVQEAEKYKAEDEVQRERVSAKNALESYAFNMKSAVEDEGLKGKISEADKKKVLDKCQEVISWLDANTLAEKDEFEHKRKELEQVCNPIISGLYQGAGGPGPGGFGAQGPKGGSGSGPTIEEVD
Sequence of Bcl-2-like protein 10 (Q9HD36 whole entry): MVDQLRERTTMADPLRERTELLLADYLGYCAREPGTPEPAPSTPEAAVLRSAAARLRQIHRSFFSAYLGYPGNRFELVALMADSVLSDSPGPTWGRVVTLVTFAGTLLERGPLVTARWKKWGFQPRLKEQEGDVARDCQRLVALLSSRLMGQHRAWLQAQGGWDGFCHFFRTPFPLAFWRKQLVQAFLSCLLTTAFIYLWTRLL
Sequence of Cytochrome P450 2D6 (P10635 whole entry): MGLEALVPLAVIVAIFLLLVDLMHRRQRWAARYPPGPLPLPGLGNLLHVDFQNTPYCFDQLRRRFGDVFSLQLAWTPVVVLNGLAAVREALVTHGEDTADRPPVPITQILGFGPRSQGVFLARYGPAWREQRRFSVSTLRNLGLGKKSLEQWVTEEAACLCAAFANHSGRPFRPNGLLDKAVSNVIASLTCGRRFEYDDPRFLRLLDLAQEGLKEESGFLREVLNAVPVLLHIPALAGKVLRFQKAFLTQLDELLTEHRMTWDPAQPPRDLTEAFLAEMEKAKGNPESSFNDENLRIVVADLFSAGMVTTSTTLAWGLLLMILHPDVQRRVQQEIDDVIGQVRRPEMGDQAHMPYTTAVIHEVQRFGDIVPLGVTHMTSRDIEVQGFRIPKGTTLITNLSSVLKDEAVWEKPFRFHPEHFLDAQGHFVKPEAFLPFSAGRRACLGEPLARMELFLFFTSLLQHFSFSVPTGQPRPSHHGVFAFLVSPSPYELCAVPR
Sequence of Luciferin 4-monooxygenase (P08659 whole entry): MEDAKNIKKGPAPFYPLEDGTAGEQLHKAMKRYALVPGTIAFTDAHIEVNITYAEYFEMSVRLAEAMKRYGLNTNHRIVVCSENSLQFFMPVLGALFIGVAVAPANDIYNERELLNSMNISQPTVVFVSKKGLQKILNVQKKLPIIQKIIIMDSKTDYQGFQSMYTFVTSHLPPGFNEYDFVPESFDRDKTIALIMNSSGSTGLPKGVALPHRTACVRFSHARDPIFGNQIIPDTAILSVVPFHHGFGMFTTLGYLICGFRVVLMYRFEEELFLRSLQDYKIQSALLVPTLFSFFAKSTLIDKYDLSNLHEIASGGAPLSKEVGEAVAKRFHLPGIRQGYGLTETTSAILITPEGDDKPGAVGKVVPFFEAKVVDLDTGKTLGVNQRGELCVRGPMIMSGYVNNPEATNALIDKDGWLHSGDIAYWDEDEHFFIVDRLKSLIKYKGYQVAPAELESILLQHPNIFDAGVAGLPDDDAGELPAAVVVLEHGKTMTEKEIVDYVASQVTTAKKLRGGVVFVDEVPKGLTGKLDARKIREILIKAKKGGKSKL
Sequence of Estrogen receptor beta (Q92731 whole entry): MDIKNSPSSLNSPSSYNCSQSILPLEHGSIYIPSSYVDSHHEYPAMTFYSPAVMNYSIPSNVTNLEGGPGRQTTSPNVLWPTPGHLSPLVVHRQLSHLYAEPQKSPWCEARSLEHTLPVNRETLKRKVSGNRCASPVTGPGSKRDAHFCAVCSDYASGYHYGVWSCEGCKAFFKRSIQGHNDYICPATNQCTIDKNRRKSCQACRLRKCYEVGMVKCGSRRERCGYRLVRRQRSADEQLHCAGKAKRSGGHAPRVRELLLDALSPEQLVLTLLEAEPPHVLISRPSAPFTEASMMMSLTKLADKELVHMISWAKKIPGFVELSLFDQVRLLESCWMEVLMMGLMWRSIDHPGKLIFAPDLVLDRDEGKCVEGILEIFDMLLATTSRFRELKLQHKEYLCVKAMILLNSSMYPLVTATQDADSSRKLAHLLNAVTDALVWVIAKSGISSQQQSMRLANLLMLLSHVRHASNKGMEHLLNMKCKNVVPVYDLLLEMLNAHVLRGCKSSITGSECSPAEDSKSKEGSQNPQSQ
Sequence of G2/mitotic-specific cyclin-B1 (P14635 whole entry, the tested form may be a part): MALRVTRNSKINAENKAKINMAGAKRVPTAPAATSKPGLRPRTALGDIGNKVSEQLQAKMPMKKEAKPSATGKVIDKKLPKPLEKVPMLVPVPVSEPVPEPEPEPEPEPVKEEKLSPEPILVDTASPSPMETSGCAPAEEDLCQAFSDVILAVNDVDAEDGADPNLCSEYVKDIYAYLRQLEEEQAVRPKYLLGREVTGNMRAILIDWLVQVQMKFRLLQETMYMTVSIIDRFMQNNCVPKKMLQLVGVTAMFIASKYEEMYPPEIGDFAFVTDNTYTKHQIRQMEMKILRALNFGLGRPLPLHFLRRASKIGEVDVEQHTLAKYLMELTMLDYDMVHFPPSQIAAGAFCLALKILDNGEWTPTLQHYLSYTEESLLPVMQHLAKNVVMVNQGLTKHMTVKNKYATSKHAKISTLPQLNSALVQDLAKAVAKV
Sequence of Mothers against decapentaplegic homolog 3 (P84022 whole entry): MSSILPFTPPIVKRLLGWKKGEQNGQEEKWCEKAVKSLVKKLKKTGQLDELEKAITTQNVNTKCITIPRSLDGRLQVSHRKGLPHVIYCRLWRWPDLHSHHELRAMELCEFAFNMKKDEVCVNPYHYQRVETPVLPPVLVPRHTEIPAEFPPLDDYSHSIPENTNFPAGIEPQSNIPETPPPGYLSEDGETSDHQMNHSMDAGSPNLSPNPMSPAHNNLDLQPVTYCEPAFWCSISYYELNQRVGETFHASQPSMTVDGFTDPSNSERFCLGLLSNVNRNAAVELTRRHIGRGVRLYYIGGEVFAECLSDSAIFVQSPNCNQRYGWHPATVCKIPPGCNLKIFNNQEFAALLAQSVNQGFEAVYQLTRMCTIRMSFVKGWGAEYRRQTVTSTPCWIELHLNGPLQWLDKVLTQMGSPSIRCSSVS
Sequence of Wee1-like protein kinase (P30291 whole entry): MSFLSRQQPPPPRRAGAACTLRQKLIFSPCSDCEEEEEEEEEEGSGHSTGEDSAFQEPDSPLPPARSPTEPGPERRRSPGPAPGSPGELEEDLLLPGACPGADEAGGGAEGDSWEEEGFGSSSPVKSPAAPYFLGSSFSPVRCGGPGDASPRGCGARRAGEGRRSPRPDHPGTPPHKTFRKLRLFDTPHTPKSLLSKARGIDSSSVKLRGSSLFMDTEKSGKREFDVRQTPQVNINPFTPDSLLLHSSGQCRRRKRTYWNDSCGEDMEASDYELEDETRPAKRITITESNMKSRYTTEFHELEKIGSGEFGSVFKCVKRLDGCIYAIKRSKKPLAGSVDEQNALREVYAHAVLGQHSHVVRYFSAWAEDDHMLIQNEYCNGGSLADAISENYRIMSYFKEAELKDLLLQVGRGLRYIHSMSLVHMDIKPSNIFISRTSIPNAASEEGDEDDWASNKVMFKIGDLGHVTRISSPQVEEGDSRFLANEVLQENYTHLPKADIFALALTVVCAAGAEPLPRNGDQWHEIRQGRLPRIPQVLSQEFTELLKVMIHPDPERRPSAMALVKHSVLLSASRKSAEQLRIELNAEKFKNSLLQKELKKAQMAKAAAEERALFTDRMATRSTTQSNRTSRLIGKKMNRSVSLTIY

**Q.** For `O=S(=O)(O)c1cccc2cccc(Nc3ccccc3)c12`, which EC50 [1] is on record?
**A.** 2.95 µM (active)

**Q.** With `O=C(/C=C/c1ccccc1)Nc1ccc(Cl)cn1` as the molecule, how does the EC50 [2] read?
**A.** > 49.7 µM (not active)

**Q.** What about the EC50 [3] of the same molecule?
**A.** > 49.7 µM (not active)

**Q.** What does the source list for `COc1cc(/C=N/Nc2ccc(Cl)c(C(=O)O)c2)ccc1OC(=O)c1ccc(F)cc1`?
**A.** IC50 [4]: 4.76 µM (active); IC50 [5]: 0.874 µM (active)

**Q.** Which EC50 [6] does the source give for `CCCCOc1ccc(C(=O)C(CN2CCOCC2)c2ccccc2)cc1` (stereo not given) here?
**A.** 3.7 µM (active)

**Q.** What about the EC50 [7] of the same molecule?
**A.** 26.7 µM (inconclusive)

**Q.** What about the AC50 [8] of the same molecule?
**A.** 12.6 µM (active)

**Q.** What about the AC50 [9] of the same molecule?
**A.** 5.12 µM (active)

**Q.** What about the AC50 [10] of the same molecule?
**A.** 4.4 µM (active)

**Q.** What about the EC50 [11] of the same molecule?
**A.** 30 µM (active)

**Q.** Which IC50 [12] does the source give for `Oc1cc2c(cc1C(c1ccc3c(c1)OCO3)N1CCN(C(c3ccc4c(c3)OCO4)c3cc4c(cc3O)OCO4)CC1)OCO2` (stereo not given) here?
**A.** 14.1 µM (not active)

**Q.** With `CC1(O)C(=O)C=C2C=C3CCCN3C=C2C1=O` (stereo not given) as the molecule, how does the AC50 [13] read?
**A.** 7.94 µM (inconclusive)

**Q.** For `CCC(C)C(NC(=O)c1ccccc1NC(=O)c1ccco1)C(=O)NC1CCCCC1` (stereo not given), which EC50 [14] is on record?
**A.** > 100 µM (not active)

**Q.** Which results are given for `NC(=O)COc1ccc(C2c3c(oc4ccccc4c3=O)C(=O)N2CC2CCCO2)cc1` (stereo not given)?
**A.** IC50 [15]: > 50 µM (not active); IC50 [16]: 55.1 µM (active); IC50 [17]: 16 µM (active); IC50 [18]: > 50 µM (not active)

**Q.** With `O=C(Nc1cccc(C(F)(F)F)c1)c1csc(-c2ccncc2)n1` as the molecule, how does the IC50 [19] read?
**A.** 21.2 µM (not active)

**Q.** And the IC50 [20]?
**A.** 5.34 µM (active)

From ChEMBL document CHEMBL1201862, “PubChem BioAssay data set” (2004)
